How the values were obtained:
[1] = Persistence in plasma (incubation at 37° C., LC-MS/MS); assay type: in vitro ADME, human; conditions: for Peak Area Ratio (Analyte/IS): Human Plasma
Method: Test compounds and control (procaine) were incubated at a concentration of 10 μM with human plasma. […]
After quenching by acetonitrile, the plates were capped, vortexed, and centrifuged at 3000 rpm for 10 minutes. The supernatant was injected into LC-MS/MS.

[2] = Persistence in plasma study, PBS buffer incubation; assay type: physicochemical; conditions: for Peak Area Ratio (Analyte/IS): PBS Buffer (pH 7.4), 37° C.; for % Remaining after 24-hr Incubation at 37° C.: PBS buffer
[3] = oral drug, poor absorption; cited from earlier work
[4] = product insert; cited from earlier work
CYP3A4 liver enzyme = CYP3A4 liver enzyme (Homo sapiens, UniProt P08684); conditions: cited from earlier work
[5] = depending on fat content of the meal; cited from earlier work

CYP3A4 liver enzyme, sequence (P08684 whole entry): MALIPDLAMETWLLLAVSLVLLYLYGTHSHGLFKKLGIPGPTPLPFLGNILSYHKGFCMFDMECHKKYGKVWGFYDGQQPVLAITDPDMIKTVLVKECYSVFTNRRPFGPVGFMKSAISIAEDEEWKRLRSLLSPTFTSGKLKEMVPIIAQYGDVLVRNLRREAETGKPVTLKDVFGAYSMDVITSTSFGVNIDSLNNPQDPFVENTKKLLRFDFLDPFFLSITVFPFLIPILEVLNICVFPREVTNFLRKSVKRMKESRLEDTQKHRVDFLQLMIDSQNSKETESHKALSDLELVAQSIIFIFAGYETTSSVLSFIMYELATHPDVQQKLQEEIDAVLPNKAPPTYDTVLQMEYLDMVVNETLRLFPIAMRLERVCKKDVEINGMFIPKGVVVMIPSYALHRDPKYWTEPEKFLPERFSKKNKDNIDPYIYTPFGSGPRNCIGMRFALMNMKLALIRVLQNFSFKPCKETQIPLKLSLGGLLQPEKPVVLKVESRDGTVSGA

For `CCN(CC)CCOC(=O)c1ccc(N)cc1` [Procaine], the “Peak Area Ratio (Analyte/IS)” value ([1]; 0 hr, Replicate 1) was 0.443, the “Peak Area Ratio (Analyte/IS)” value ([1]; 0 hr, Replicate 2) was 0.444 and the “Peak Area Ratio (Analyte/IS)” value ([1]; 24 hr, 37° C., Replicate 1) was 0.0. The “Peak Area Ratio (Analyte/IS)” value ([1]; 24 hr, 37° C., Replicate 2) was 0.0, the “% Remaining after 24-hr Incubation at 37° C.” value (shortened to “% Remaining”) ([1]; human, plasma, 24 h, 10 μM) was 0.0% and the “Peak Area Ratio (Analyte/IS)” value ([2]; Replicate 1) was 0.0916. For the same molecule, the “Peak Area Ratio (Analyte/IS)” value ([2]; Replicate 2) was 0.357, the “% Remaining” value ([2]; Average) was 51% and the “% Remaining” value ([2]; Replicate 1) was 20.65%. For the same molecule, the “% Remaining” value ([2]; Replicate 2) was 80.5%.
For `CC(=O)O[C@H]1CC[C@@]2(C)C(=CC[C@@H]3[C@@H]2CC[C@]2(C)C(c4cccnc4)=CC[C@@H]32)C1` [abiraterone acetate], the Administered drug excreted [3] is given as 77%, the Solubility in water [4] is given as “practically insoluble” and the “Substrate of CYP3A4” value (CYP3A4 liver enzyme) is given as “substrate”. The Food-effect [5] was “five- to ten-fold”.
